Measured values as given in patent publication US20240050428A1 (Cullgen (Shanghai), Inc., priority 2020, published 2024).
Read-outs that look alike come from different tables or passages of the source.

How the values were obtained:
MV4;11 cells = assay: Cell viability assay (CellTiter-Glo) in MV4;11 cells, alone or with gilteritinib; assay type: cell-based; details: Homo sapiens, MV4;11 cells, three days, CellTiter-Glo, read-out: MV4
MOLM-13 cells = assay: Cell viability assay (CellTiter-Glo) in MOLM-13 cells, alone or with gilteritinib; assay type: cell-based; details: Homo sapiens, MOLM-13 cells, three days, CellTiter-Glo
[1] = MV4-11, 72 h, compound alone (without gilteritinib), 11 IC50
[2] = MV4-11, 72 h, with gilteritinib 10 nM, 11 IC50 gilteritinib
[3] = MOLM-13, 72 h, compound alone (without gilteritinib), read-out: MOLM-13 IC50
[4] = MOLM-13, 72 h, with gilteritinib 20 nM, read-out: MOLM-13 IC50 gilteritinib
[5] = 72 h, compound alone (without gilteritinib), 11 IC50
[6] = 72 h, with gilteritinib 10 nM, 11 IC50 gilteritinib
[7] = 72 h, compound alone (without gilteritinib), read-out: MOLM-13 IC50
[8] = 72 h, with gilteritinib 20 nM, read-out: MOLM-13 IC50 gilteritinib

Row | SMILES | IC50 (MV4;11 cells; [1]) | IC50 (MV4;11 cells; [2]) | IC50 (MOLM-13 cells; [3]) | IC50 (MOLM-13 cells; [4]) | IC50 (MV4;11 cells; [5]) | IC50 (MV4;11 cells; [6]) | IC50 (MOLM-13 cells; [7]) | IC50 (MOLM-13 cells; [8])
1 | O=C1CCC(N2C(=O)c3ccc(NCC45CC(C(=O)N6CCC(n7cc(-c8cnc9ccccc9n8)cn7)CC6)(C4)C5)cc3C2=O)C(=O)N1 (stereo not drawn) [GS-144, 2-(2,6-Dioxopiperidin-3-yl)-5-(((3-(4-(4-(quinoxalin-2-yl)-1H-pyrazol-1-yl)piperidine-1-carbonyl)bicyclo[1.1.1]pentan-1-yl)methyl)amino)isoindoline-1,3-dione] | 100 to 1000 nM | 10 to 100 nM | > 1000 nM | 100 to 1000 nM |  |  |  | 
2 | O=C1CCC(N2C(=O)c3ccc(NCCCC(F)(F)C(=O)N4CCC(n5cc(-c6cnc7ccccc7n6)cn5)CC4)cc3C2=O)C(=O)N1 (stereo not drawn) [GS-145, 5-((4,4-Difluoro-5-oxo-5-(4-(4-(quinoxalin-2-yl)-1H-pyrazol-1-yl)piperidin-1-yl)pentyl)amino)-2-(2,6-dioxopiperidin-3-yl)isoindoline-1,3-dione] | 100 to 1000 nM | 10 to 100 nM | 100 to 1000 nM | < 10 nM |  |  |  | 
3 | Cc1nn(CCCCCCNc2ccc3c(c2)C(=O)N(C2CCC(=O)NC2=O)C3=O)c(C)c1-c1cnccn1 (stereo not drawn) [GS-146, 5-((6-(3,5-Dimethyl-4-(pyrazin-2-yl)-1H-pyrazol-1-yl)hexyl)amino)-2-(2,6-dioxopiperidin-3-yl)isoindoline-1,3-dione] | > 1000 nM | 10 to 100 nM | 100 to 1000 nM | 10 to 100 nM |  |  |  | 
4 | O=C1CCC(N2C(=O)c3ccc(NCCCCC(=O)N4CCC(c5ccccc5)CC4)cc3C2=O)C(=O)N1 (stereo not drawn) [GS-147, 2-(2,6-Dioxopiperidin-3-yl)-5-((5-oxo-5-(4-phenylpiperidin-1-yl)pentyl)amino)isoindoline-1,3-dione] |  |  |  |  | > 1000 nM | 100 to 1000 nM | > 1000 nM | 10 to 100 nM
5 | O=C1CCC(N2C(=O)c3ccc(NCCCC(=O)N4CCC(c5ccccc5)CC4)cc3C2=O)C(=O)N1 (stereo not drawn) [GS-148, 2-(2,6-Dioxopiperidin-3-yl)-5-((4-oxo-4-(4-phenylpiperidin-1-yl)butyl)amino)isoindoline-1,3-dione] |  |  |  |  | > 1000 nM | 100 to 1000 nM | 100 to 1000 nM | 10 to 100 nM
6 | O=C1CCC(N2C(=O)c3ccc(NCCNC(=O)N4CCC(n5cc(-c6cnc7ccccc7n6)cn5)CC4)cc3C2=O)C(=O)N1 (stereo not drawn) [GS-149, N-(2-((2-(2,6-dioxopiperidin-3-yl)-1,3-dioxoisoindolin-5-yl)amino)ethyl)-4-(4-(quinoxalin-2-yl)-1H-pyrazol-1-yl)piperidine-1-carboxamide] | > 1000 nM | 100 to 1000 nM | > 1000 nM | 100 to 1000 nM |  |  |  | 
7 | Cc1nn(CCCCCCNc2ccc3c(c2)C(=O)N(C2CCC(=O)NC2=O)C3=O)c(C)c1-c1ncccn1 (stereo not drawn) [GS-150, 5-((6-(3,5-Dimethyl-4-(pyrimidin-2-yl)-1H-pyrazol-1-yl)hexyl)amino)-2-(2,6-dioxopiperidin-3-yl)isoindoline-1,3-dione] | 100 to 1000 nM | 10 to 100 nM | 100 to 1000 nM | < 10 nM |  |  |  | 
8 | Cc1nn(CCCCCCNc2ccc3c(c2)C(=O)N(C2CCC(=O)NC2=O)C3=O)c(C)c1-c1ncc2ccccc2n1 (stereo not drawn) [GS-151, 5-((6-(3,5-Dimethyl-4-(quinazolin-2-yl)-1H-pyrazol-1-yl)hexyl)amino)-2-(2,6-dioxopiperidin-3-yl)isoindoline-1,3-dione] | 10 to 100 nM | < 10 nM | 10 to 100 nM | < 10 nM |  |  |  | 
9 | O=C1CCC(N2C(=O)c3ccc(NCCc4cccc(N5CCC(n6cc(-c7cnc8ccccc8n7)cn6)CC5)c4)cc3C2=O)C(=O)N1 (stereo not drawn) [GS-152, 2-(2,6-Dioxopiperidin-3-yl)-5-((3-(4-(4-(quinoxalin-2-yl)-1H-pyrazol-1-yl)piperidin-1-yl)phenethyl)amino)isoindoline-1,3-dione] | 100 to 1000 nM | 10 to 100 nM | 100 to 1000 nM | 10 to 100 nM |  |  |  | 
10 | O=C1CCC(N2C(=O)c3ccc(NCCCCC(=O)N4CCC(n5cc(-c6cnc7ccccc7n6)cn5)CC45CC5)cc3C2=O)C(=O)N1 (stereo not drawn) [GS-153, 2-(2,6-Dioxopiperidin-3-yl)-5-((5-oxo-5-(7-(4-(quinoxalin-2-yl)-1H-pyrazol-1-yl)-4-azaspiro[2.5]octan-4-yl)pentyl)amino)isoindoline-1,3-dione] | 100 to 1000 nM | 100 to 1000 nM | > 1000 nM | 10 to 100 nM |  |  |  | 
11 | O=C1CCC(N2Cc3c(NC4CCCC(CCCC(=O)N5CCC(n6cc(-c7cnc8ccccc8n7)cn6)CC5)C4)cccc3C2=O)C(=O)N1 (stereo not drawn) [GS-154, 3-(1-Oxo-4-((3-(4-oxo-4-(4-(4-(quinoxalin-2-yl)-1H-pyrazol-1-yl)piperidin-1-yl)butyl)cyclohexyl)amino)isoindolin-2-yl)piperidine-2,6-dione] | > 1000 nM | > 1000 nM | > 1000 nM | > 1000 nM |  |  |  | 
12 | O=C1CCC(N2C(=O)c3ccc(NCC4CCC(Cn5cc(-c6cnc7ccccc7n6)cn5)CC4)cc3C2=O)C(=O)N1 (stereo not drawn) [GS-155, 2-(2,6-Dioxopiperidin-3-yl)-5-(((4-((4-(quinoxalin-2-yl)-1H-pyrazol-1-yl)methyl)cyclohexyl)methyl)amino)isoindoline-1,3-dione] | 100 to 1000 nM | > 1000 nM | > 1000 nM | 100 to 1000 nM |  |  |  | 
13 | Cc1nn(C2CC(CCCNc3ccc4c(c3)C(=O)N(C3CCC(=O)NC3=O)C4=O)C2)c(C)c1-c1cnc2cccc(F)c2n1 (stereo not drawn) [GS-156, 2-(2,6-Dioxopiperidin-3-yl)-5-((3-(3-(4-(8-fluoroquinoxalin-2-yl)-3,5-dimethyl-1H-pyrazol-1-yl)cyclobutyl)propyl)amino)isoindoline-1,3-dione] | > 1000 nM | 100 to 1000 nM | > 1000 nM | < 10 nM |  |  |  | 
14 | O=C1CCC(N2Cc3c(NC4CCCC(CCCn5cc(-c6cnc7ccccc7n6)cn5)C4)cccc3C2=O)C(=O)N1 (stereo not drawn) [GS-157] | > 1000 nM | > 1000 nM | > 1000 nM | > 1000 nM |  |  |  | 
15 | O=C1CCC(N2Cc3ccc(CCCC(=O)N4CCC(n5cc(-c6cnc7ccccc7n6)cn5)CC4)cc3C2=O)C(=O)N1 (stereo not drawn) [GS-158, 3-(1-Oxo-6-(4-oxo-4-(4-(4-(quinoxalin-2-yl)-1H-pyrazol-1-yl)piperidin-1-yl)butyl)isoindolin-2-yl)piperidine-2,6-dione] | > 1000 nM | > 1000 nM | > 1000 nM | > 1000 nM |  |  |  | 
16 | O=C1CCC(N2Cc3ccc(CCCC(=O)N4CCC(n5cc(-c6ccc7ccccc7n6)cn5)CC4)cc3C2=O)C(=O)N1 (stereo not drawn) [GS-159, 3-(1-Oxo-6-(4-oxo-4-(4-(4-(quinolin-2-yl)-1H-pyrazol-1-yl)piperidin-1-yl)butyl)isoindolin-2-yl)piperidine-2,6-dione] | > 1000 nM | > 1000 nM | > 1000 nM | > 1000 nM |  |  |  | 
17 | O=C1CCC(N2Cc3ccc(CCCCC(=O)N4CCC(n5cc(-c6ccc7ccccc7n6)cn5)CC4)cc3C2=O)C(=O)N1 (stereo not drawn) [GS-160, 3-(1-Oxo-6-(5-oxo-5-(4-(4-(quinolin-2-yl)-1H-pyrazol-1-yl)piperidin-1-yl)pentyl)isoindolin-2-yl)piperidine-2,6-dione] | 100 to 1000 nM | 10 to 100 nM | > 1000 nM | 10 to 100 nM |  |  |  | 
18 | O=C1CCC(N2Cc3ccc(CCCCC(=O)N4CCC(n5cc(-c6cnc7ccccc7n6)cn5)CC4)cc3C2=O)C(=O)N1 (stereo not drawn) [GS-161, 3-(1-Oxo-6-(5-oxo-5-(4-(4-(quinoxalin-2-yl)-1H-pyrazol-1-yl)piperidin-1-yl)pentyl)isoindolin-2-yl)piperidine-2,6-dione] | 100 to 1000 nM | 10 to 100 nM | > 1000 nM | 10 to 100 nM |  |  |  | 
